Data: ChEMBL document CHEMBL3046137, “Benzo[d][1,3] oxathiols: synthesis and biological evaluation as potential atypical antipsychotic agents” (Med Chem Res, 2011)

Experiments:
Mus musculus [1] = assay: Induction of catalepsy in ip dosed Mus musculus albino (mouse) measured after 20 min for 5 min; type: organism-based; details: in vivo
Mus musculus [2] = assay: Induction of catalepsy in Mus musculus albino (mouse) at 25 mg/kg, ip measured after 20 min for 5 min; type: organism-based; design: dose 25 mg/kg, route intraperitoneal; details: in vivo
Mus musculus [3] = assay: Atypical antipsychotic activity in Mus musculus albino (mouse) assessed as inhibition of apomorphine-induced climbing behaviour at 60 mg/kg, ip administered 30 min prior to apomorphine-challenge measured after 5 min for 30 min relative to control; type: functional; details: route intraperitoneal
Mus musculus [4] = assay: Atypical antipsychotic activity in Mus musculus albino (mouse) assessed as inhibition of 5HTP-induced head twitching at 25 mg/kg, ip administered 30 min prior to 5-HTP-challenge measured after 20 min for 5 min
Mus musculus [5] = species on record: Mus musculus; assay: animal or person; details: albino, ip, read-out: INH
Description: Atypical antipsychotic activity in Mus musculus albino (mouse) assessed as inhibition of apomorphine-induced climbing behaviour at 25 mg/kg, ip administered 30 min prior to apomorphine-challenge measured after 5 min for 30 min relative to control

Question: Which results are given for `Cc1ccc(OCCCOc2ccc3sc(=O)oc3c2)cc1`?
Answer: Activity (Mus musculus [1]): Dose-dependent effect; Activity (Mus musculus [2]): 39.48%; inhibition in vivo at 60 mg/kg (Mus musculus [3]): 52.4%; inhibition in vivo at 25 mg/kg (Mus musculus [4]): 77.3%

Question: Which Activity (Mus musculus [1]) does the source give for `O=c1oc2cc(OCCCOc3ccc4ccccc4c3)ccc2s1` here?
Answer: Dose-dependent effect

Question: What about the Activity (Mus musculus [2]) of the same compound?
Answer: 41.22%

Question: And the inhibition in vivo at 60 mg/kg (Mus musculus [3])?
Answer: 47%

Question: And the inhibition in vivo at 25 mg/kg (Mus musculus [4])?
Answer: 61.1%

Question: `O=c1oc2cc(OCCCOc3cccc4ccccc34)ccc2s1` was tested. Which Activity (Mus musculus [1]) did it give?
Answer: Dose-dependent effect

Question: What about the Activity (Mus musculus [2]) of the same compound?
Answer: 49.21%

Question: And the inhibition in vivo at 60 mg/kg (Mus musculus [3])?
Answer: 39%

Question: And the inhibition in vivo at 25 mg/kg (Mus musculus [4])?
Answer: 58.3%

Question: Which Activity (Mus musculus [2]) does the source give for `O=C1CCc2ccc(OCCCCN3CCN(c4cccc(Cl)c4Cl)CC3)cc2N1` [ARIPIPRAZOLE] here?
Answer: 29.34%

Question: What about the inhibition in vivo at 25 mg/kg (Mus musculus [5]) of the same compound?
Answer: 62.4%

Question: And the inhibition in vivo at 25 mg/kg (Mus musculus [4])?
Answer: 80.2%

Question: What does the source list for `O=c1oc2cc(OCCCN3CCCCC3)ccc2s1`?
Answer: Activity (Mus musculus [1]): Dose-dependent effect; Activity (Mus musculus [2]): 41%; inhibition in vivo at 60 mg/kg (Mus musculus [3]): 51.2%; inhibition in vivo at 25 mg/kg (Mus musculus [4]): 67.3%

Question: How did the Activity (Mus musculus [1]) turn out when `O=c1oc2cc(OCCCN3CCOCC3)ccc2s1` was run?
Answer: Dose-dependent effect

Question: And the Activity (Mus musculus [2])?
Answer: 39.27%

Question: And the inhibition in vivo at 60 mg/kg (Mus musculus [3])?
Answer: 69.6%

Question: And the inhibition in vivo at 25 mg/kg (Mus musculus [4])?
Answer: 71.5%

Question: For `O=c1oc2cc(OCCCOc3ccc(Cl)cc3)ccc2s1`, which Activity (Mus musculus [1]) is on record?
Answer: Dose-dependent effect

Question: And the Activity (Mus musculus [2])?
Answer: 33.71%

Question: What about the inhibition in vivo at 60 mg/kg (Mus musculus [3]) of the same compound?
Answer: 49.3%

Question: What about the inhibition in vivo at 25 mg/kg (Mus musculus [4]) of the same compound?
Answer: 77.9%

Question: `O=c1oc2cc(OCCCN3CCNCC3)ccc2s1` was tested. Which Activity (Mus musculus [1]) did it give?
Answer: Dose-dependent effect

Question: What about the Activity (Mus musculus [2]) of the same compound?
Answer: 42.39%

Question: What about the inhibition in vivo at 60 mg/kg (Mus musculus [3]) of the same compound?
Answer: 62.3%

Question: And the inhibition in vivo at 25 mg/kg (Mus musculus [4])?
Answer: 68.2%

Question: With `O=c1oc2cc(OCCCn3cnnc3)ccc2s1` as the compound, how does the Activity (Mus musculus [1]) read?
Answer: Dose-dependent effect

Question: What about the Activity (Mus musculus [2]) of the same compound?
Answer: 36.98%

Question: What about the inhibition in vivo at 60 mg/kg (Mus musculus [3]) of the same compound?
Answer: 70%

Question: What about the inhibition in vivo at 25 mg/kg (Mus musculus [4]) of the same compound?
Answer: 79.3%

Question: For `CCN(CC)CCCOc1ccc2sc(=O)oc2c1`, which Activity (Mus musculus [1]) is on record?
Answer: Dose-dependent effect

Question: And the Activity (Mus musculus [2])?
Answer: 37.11%

Question: What about the inhibition in vivo at 60 mg/kg (Mus musculus [3]) of the same compound?
Answer: 53.3%

Question: And the inhibition in vivo at 25 mg/kg (Mus musculus [4])?
Answer: 63.4%

Question: With `O=c1oc2cc(OCCCOc3ccc([N+](=O)[O-])cc3)ccc2s1` as the compound, how does the Activity (Mus musculus [1]) read?
Answer: Dose-dependent effect

Question: And the Activity (Mus musculus [2])?
Answer: 43.92%

Question: And the inhibition in vivo at 60 mg/kg (Mus musculus [3])?
Answer: 67.3%

Question: What about the inhibition in vivo at 25 mg/kg (Mus musculus [4]) of the same compound?
Answer: 80%
